The source of these data is US9951055B2, “Thiazole-based inhibitors of scavenger receptor BI” (THE BROAD INSTITUTE, INC., priority 2012, dated 2018).

pEC50, pIC50: −log10 of the molar value. “Also recorded” adds a separate entry of the source. Where only a bound is given, the exact number is not on record here.

In series [1] the target is T1, murine SR-BI (Mus musculus, UniProt Q61009).
T1 construct: expressed in transfected cells; host or cells: ldlA[mSR-BI]; (CHO ldlA7 derivative lacking the LDL receptor)
T1 sequence (Q61009 1-509): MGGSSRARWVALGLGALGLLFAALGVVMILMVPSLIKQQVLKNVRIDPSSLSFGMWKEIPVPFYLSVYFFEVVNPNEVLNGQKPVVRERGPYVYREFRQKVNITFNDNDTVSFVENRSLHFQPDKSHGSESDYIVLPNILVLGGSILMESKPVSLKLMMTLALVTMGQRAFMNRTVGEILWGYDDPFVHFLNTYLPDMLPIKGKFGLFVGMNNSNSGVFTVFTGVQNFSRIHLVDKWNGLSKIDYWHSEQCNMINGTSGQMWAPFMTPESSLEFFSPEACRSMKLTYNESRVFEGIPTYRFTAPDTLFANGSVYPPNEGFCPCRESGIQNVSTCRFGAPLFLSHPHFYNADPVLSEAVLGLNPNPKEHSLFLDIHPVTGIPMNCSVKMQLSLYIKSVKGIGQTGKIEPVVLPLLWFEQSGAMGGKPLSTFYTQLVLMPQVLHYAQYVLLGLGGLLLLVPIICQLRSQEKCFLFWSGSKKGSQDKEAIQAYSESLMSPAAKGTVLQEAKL
As to the kind of experiment: DiI-HDL uptake assay with extended washout. It counts as cell-based. The note with it: after a 4-hour washout period. The protocol: DiI-HDL Uptake Assay with Extended Washout (SA 5: AID No. 602154)
This is another modification of the primary assay where cells are pretreated with compound but no compound is present during a 4-hour washout period or the subsequent 3-hour DiI-HDL treatment period. […] Cells were treated with compound for 3 hours, then were washed four times with PBS, once with lipoprotein-free media (Ham's F12/0.5% fatty acid-free Bovine Serum Albumin [BSA]/25 mM HEPES pH 7.4), and then returned to the incubator with lipoprotein-free media for 4 hours. Media were then removed and cells were washed with PBS before fresh lipoprotein-free media (Ham's F12/0.5% fatty acid-free Bovine Serum Albumin [BSA]/25 mM HEPES pH 7.4) was added with […] DiI-HDL. Cells took up the DiI via SR-BI over 3 hours in the absence of compound. After significant uptake of the DiI, the cells became fluorescent. The level of fluorescence correlates with the amount of DiI uptake and can be measured with a standard plate reader. The uptake of lipid (represented by DiI) was inhibited by the compound BLT-1 or with an excess of HDL untreated with DiI.

The subject of series [2] is Jc1 378-1 TagRFP reporter HCV virus. In words: In vitro inhibition of HCV in Huh-7.5 cells. It counts as cell-based, hepatitis C virus. The note with it: for inhibition of HCV replication: Huh-7.5 cells, MOI=0.1, 3 dpi; for mean fluorescence intensity (MFI) of HCV positive cells: normalized to DMSO control. The protocol:
The compound of formula (II) was also tested for the in vitro inhibition of HCV. Huh-7.5 cells were seeded in a 24-well plates (50,000 cells/well) and incubate over night. The medium was changed to compound/solvent containing medium 2 hours prior to infection (200 μL/well) with a reporter HCV virus called Jc1 378-1 TagRFP. A dilute virus stock was used to infect at a MOI of 0.1 (7,500 IU/well) in 10 μL medium. 10 μL of virus dilution was added to the wells containing compound/solvent (thereby dilution the compounds by only ˜5%). Infections were incubated for 4 hours before washing off the inoculum 1× with 500 μL medium. Fresh compound/solvent containing medium was added to the cells (500 μL/well), and further incubated for 48-72 hours. Cells were harvested at 48-72 hpi and viral replication was determined by fixing the cells and measuring replication by FACS (fluorescence activated cell sorting). Controls having antibodies that neutralize HCV by blocking E2 (2 μg/mL) and controls having antibodies that block a HCV receptor CD81 (2 μg/mL) were used.
A series of tests were conducted using the compound of Formula II ML278), other known inhibitors of SRB1 and controls with cells infected with hepatitis C virus (HCV). The cells (Huh-7.5 cells infected with Jc1 378-1 TagRFP (MOI=0.1) 3 dpi) were treated with the following SR-BI compounds and controls:
Three different infection protocols were followed: (1) no wash—virus inoculum was removed 4 hpi and fresh medium containing compounds added without washing cells; (2) 5× wash—virus inoculum was removed 4 hpi, cells were washed 5× with PBS and fresh medium containing compounds added; and (3) no wash Opt—infection were performed in serum-free OptiMem; virus inoculum was removed 4 hpi and fresh medium containing compounds added without washing cells. FIG. 107 provides a comparison of the three different infection set-ups. FIG. 108 provides a comparison of two independent experiments.

Series [3] addresses T2, SR-BI (Mus musculus, UniProt Q61009).
T2 sequence (Q61009 1-509): T1 sequence (Q61009 1-509)
As to the kind of experiment: Radioactive HDL uptake assay (wild type SR-BI). In kind it is cell-based, murine. Details: expressed in transfected cells; host or cells: ldlA[mSR-BI]; (CHO ldlA7 derivative lacking the LDL receptor). The note with it: [3H]cholesteryl ester HDL; read-out: average IC50, radiolabeled version of the uptake assay. The source says: Radioactive HDL Uptake Assay (wild type SR-BI) (SA 8: AID No. 588836)
The goal of this assay is to verify compounds that disrupt the lipid uptake from HDL particles to SR-BI scavenger receptor-expressing cells using an alternative means of labeling HDL particles and avoiding any type of fluorescence measurement. To measure this binding event, HDL particles are labeled with [^3H]cholesteryl ester and added to mSR-BI expressing cells. Cells take up the radioactive lipids from HDL via SR-BI in 2 to 3 hours. After significant uptake of the lipids from HDL, the radiolabel can be detected by liquid scintillation counting. The level of radioactivity correlates with the amount of HDL lipid uptake. The uptake of lipid from the HDL particles particles can be inhibited by the compound BLT-1 or when co-treated with an excess of unlabeled HDL. The ldlA[mSR-BI]-expressing cells utilized in the assay are from a Chinese Hamster Ovary (CHO) cell line lacking expression of the LDL receptors and overexpressing the scavenger receptor, SR-BI. Inhibitors of SR-BI and HDL lipid uptake will have a reduction in liquid scintillation counts.

Series [4] in a line: Plasma protein binding. It counts as in vitro ADME. The note with it: human plasma; read-out: plasma protein binding, bound (converted).
Series [5] in a line: Stability in human plasma. In kind it is in vitro ADME. The note with it: after a 5-hour incubation period. The procedure:
The stability of the probe in PBS (1% DMSO) was measured over 48 hours. We noticed that the concentration of the probe fluctuated through the course of the assay (data not shown). We believe that this fluctuation is due to the low solubility of the probe. Thus, we decided to determine the amount of undissolved probe present in the well after it was treated with PBS for a given length of time, relative to the amount of undissolved probe at the start of the assay. The wells were centrifuged and the supernatant was removed after various time points, then acetonitrile was added to dissolve the remaining solid in the wells, and the amount of probe was quantified. […] The stability of the probe was confirmed by measuring stability in human plasma, with >99% remaining after a 5-hour incubation period. […] FIG. 5 provides a tablular summary of Known Probe (ML278) Properties Computed from Structure.

As usually defined, the pIC50 is −log10 of the IC50, conventionally taken in molar units. On to `CCCCCCC1CCCC1=NNC(N)=S` (stereo not shown) [BLT-1, reference compound], for which the pIC50 in series [1] was 9.22. Also, the “inhibition of HCV replication” value in series [2] (listed as SRB1-8) is recorded as “inhibited viral replication; also recorded: able to inhibit HCV replication”. Besides, the “mean fluorescence intensity (MFI) of HCV positive cells” value in series [2] is on record as “increased mean fluorescence intensity (MFI) of HCV positive cells in a dose dependent manner”.
What is called pEC50 is the negative decadic logarithm of the EC50, by convention in mol/L. What is called EC90 is the concentration needed for an effect of 90%. As for `COCC(=O)N1CCc2cc(-c3csc(NC(=O)c4cc(OC)cc(OC)c4)n3)ccc21` [Compound 137, 3,5-Dimethoxy-N-(4-(1-(2-methoxyacetyl)indolin-5-yl)thiazol-2-yl)benzamide], the negative-log IC50 (pIC50) in series [3] is 6.00. In addition, in series [4], the fraction unbound was 0.065. Besides, the “stability in human plasma, remaining” value in series [5] is given as more than 99%. Further, in series [2] (Hepatitis C virus, Huh7.5, read-out: EC50, HCV), the pEC50 was 7.36. Further, the EC90 in series [2] (Hepatitis C virus, Huh7.5, read-out: EC90, HCV) was approximately 500 nM. Besides, in series [2] (listed as SRB1-7), the “inhibition of HCV replication” value is “inhibited viral replication; also recorded: able to inhibit HCV replication”. In addition, in series [2], the “mean fluorescence intensity (MFI) of HCV positive cells” value is “this increase was not seen”.
